Reference: EPA's ToxValDB 9.5 (doi:10.2903/j.efsa.2015.4024)

Tested on: Rattus norvegicus
[1] = subchronic, duration: 90 days, oral, diet
[2] = subchronic, duration: 90 days, oral, gavage, M/F, Crj:CD, clinical signs

CSC(=O)c1ccco1 [2-Furancarbothioic acid, S-methyl ester]
NOAEL (subchronic, duration: 90 days, oral): 6.63 mg/kg-day

Cc1occc1SSc1ccoc1C [Bis(2-methyl-3-furyl)disulfide]
NOEL [1]: 0.45 mg/kg-day

CC1OCCC1S (centres undefined) [Tetrahydro-2-methyl-3-furanthiol]
NOAEL [2]: 5 mg/kg-day

Cc1occc1SSSSc1ccoc1C [Bis(2-methyl-3-furyl) tetrasulfide]
NOEL (subchronic, duration: 90 days): 0.56 mg/kg-day

Cc1cc(SSc2cc(C)oc2C)c(C)o1 [Furan, 3,3'-dithiobis[2,5-dimethyl-]
NOEL [1]: 0.45 mg/kg-day

CCOC(=O)CCSCc1ccco1 [Ethyl 3-(furfurylthio)propionate]
NOEL (subchronic, duration: 90 days): 17 mg/kg-day

CC1CC(S)C(C)O1 (centres undefined) [2,5-Dimethyltetrahydrofuran-3-thiol]
NOAEL [2]: 5 mg/kg-day

CC(=O)SC1=C(C)OCC1 [2-Methyl-3-thioacetoxy-4,5-dihydrofuran]
NOEL (chronic, duration: 1 years, oral, diet): 8.3 mg/kg-day

Cc1cc(SC(=O)CC(C)C)c(C)o1 [2,5-Dimethyl-3-thioisovalerylfuran]
NOEL (subchronic, duration: 90 days): 0.73 mg/kg-day
